What was measured:
SF-268 = experiment: NCI-60 one-dose screen; assay type: cell-based; settings: Homo sapiens; SF-268, CNS Cancer panel; single dose 10^−5 M; read-out: Growth inhibition %
CCRF-CEM = experiment: NCI-60 one-dose screen; assay type: cell-based; settings: Homo sapiens, Leukemia panel, single dose 10^−5 M, read-out: Growth inhibition %
HCT-116 = experiment: MTT cell proliferation assay, HCT-116; settings: for % Inhibition at 10 µM: 72 h MTT, means ± SD; for IC50: read-out: IC50 μM, 72 h MTT, means ± SD, three experiments
HT29 = experiment: NCI-60 one-dose screen; assay type: cell-based; settings: Homo sapiens, HT-29; HT29, Colon Cancer panel; single dose 10^−5 M; read-out: Growth inhibition %
OVCAR-5 = experiment: NCI-60 one-dose screen; assay type: cell-based; settings: Homo sapiens; OVCAR-5, Ovarian Cancer panel; single dose 10^−5 M; read-out: Growth inhibition %
TK-10 = experiment: NCI-60 one-dose screen; assay type: cell-based; settings: Homo sapiens; TK-10, Renal Cancer panel; single dose 10^−5 M; read-out: Growth inhibition %
RPMI-8226 = experiment: NCI-60 one-dose screen; assay type: cell-based; settings: Homo sapiens; RPMI-8226, Leukemia panel; single dose 10^−5 M; read-out: Growth inhibition %
SK-MEL-28 = experiment: NCI-60 one-dose screen; assay type: cell-based; settings: Homo sapiens; SK-MEL-28, Melanoma panel; single dose 10^−5 M; read-out: Growth inhibition %
UACC-62 = experiment: NCI-60 one-dose screen; assay type: cell-based; settings: Homo sapiens; UACC-62, Melanoma panel; single dose 10^−5 M; read-out: Growth inhibition %
SR = experiment: NCI-60 one-dose screen; assay type: cell-based; settings: Homo sapiens, Leukemia panel, single dose 10^−5 M, read-out: Growth inhibition %
SF-295 = experiment: NCI-60 one-dose screen; assay type: cell-based; settings: Homo sapiens; SF-295, CNS Cancer panel; single dose 10^−5 M; read-out: Growth inhibition %
KM12 = experiment: NCI-60 one-dose screen; assay type: cell-based; settings: Homo sapiens; KM12, Colon Cancer panel; single dose 10^−5 M; read-out: Growth inhibition %
PC-3 = experiment: NCI-60 one-dose screen; assay type: cell-based; settings: Homo sapiens; PC-3, Prostate Cancer panel; single dose 10^−5 M; read-out: Growth inhibition %
786-0 = experiment: NCI-60 one-dose screen; assay type: cell-based; settings: Homo sapiens; 786-0, Renal Cancer panel; single dose 10^−5 M; read-out: Growth inhibition %
SK-MEL-2 = experiment: NCI-60 one-dose screen; assay type: cell-based; settings: Homo sapiens; SK-MEL-2, Melanoma panel; single dose 10^−5 M; read-out: Growth inhibition %
HL-60(TB) = experiment: NCI-60 one-dose screen; assay type: cell-based; settings: Homo sapiens, Leukemia panel, single dose 10^−5 M, read-out: Growth inhibition %
SNB-19 = experiment: NCI-60 one-dose screen; assay type: cell-based; settings: Homo sapiens; SNB-19, CNS Cancer panel; single dose 10^−5 M; read-out: Growth inhibition %
NCI-H322M = experiment: NCI-60 one-dose screen; assay type: cell-based; settings: Homo sapiens, Non-small cell lung panel, single dose 10^−5 M, read-out: Growth inhibition %
CAKI-1 = experiment: NCI-60 one-dose screen; assay type: cell-based; settings: Homo sapiens; CAKI-1, Renal Cancer panel; single dose 10^−5 M; read-out: Growth inhibition %
MDA-MB-435 = experiment: NCI-60 one-dose screen; assay type: cell-based; settings: Homo sapiens; MDA-MB-435, Melanoma panel; single dose 10^−5 M; read-out: Growth inhibition %
OVCAR-3 = experiment: NCI-60 one-dose screen; assay type: cell-based; settings: Homo sapiens; OVCAR-3, Ovarian Cancer panel; single dose 10^−5 M; read-out: Growth inhibition %
NCI/ADR-RES = experiment: NCI-60 one-dose screen; assay type: cell-based; settings: Homo sapiens, Ovarian Cancer panel, single dose 10^−5 M, read-out: Growth inhibition %
HCT-15 = experiment: NCI-60 one-dose screen; assay type: cell-based; settings: Homo sapiens; HCT-15, Colon Cancer panel; single dose 10^−5 M; read-out: Growth inhibition %
DU-145 = experiment: NCI-60 one-dose screen; assay type: cell-based; settings: Homo sapiens; DU-145, Prostate Cancer panel; single dose 10^−5 M; read-out: Growth inhibition %
MDA-MB-468 = experiment: NCI-60 one-dose screen; assay type: cell-based; settings: Homo sapiens; MDA-MB-468, Breast Cancer panel; single dose 10^−5 M; read-out: Growth inhibition %
MCF7 = experiment: NCI-60 one-dose screen; assay type: cell-based; settings: Homo sapiens; MCF7, Breast Cancer panel; single dose 10^−5 M; read-out: Growth inhibition %
T-47D = experiment: NCI-60 one-dose screen; assay type: cell-based; settings: Homo sapiens, T47D, Breast Cancer panel, single dose 10^−5 M, read-out: Growth inhibition %
HS 578T = experiment: NCI-60 one-dose screen; assay type: cell-based; settings: Homo sapiens, Breast Cancer panel, single dose 10^−5 M, read-out: Growth inhibition %
LOX IMVI = experiment: NCI-60 one-dose screen; assay type: cell-based; settings: Homo sapiens, Melanoma panel, single dose 10^−5 M, read-out: Growth inhibition %
IGROV1 = experiment: NCI-60 one-dose screen; assay type: cell-based; settings: Homo sapiens, IGROV-1; IGROV1, Ovarian Cancer panel; single dose 10^−5 M; read-out: Growth inhibition %
CCD-966SK = experiment: MTT cell proliferation assay, CCD-966SK; settings: CCD966SK skin fibroblast, 72 h MTT

Row | Structure (SMILES) | inhibition at 10 µM (SF-268) | inhibition at 10 µM (CCRF-CEM) | % Inhibition at 10 µM (HCT-116) | inhibition at 10 µM (HT29) | inhibition at 10 µM (OVCAR-5) | inhibition at 10 µM (TK-10) | inhibition at 10 µM (RPMI-8226) | inhibition at 10 µM (SK-MEL-28) | inhibition at 10 µM (UACC-62) | inhibition at 10 µM (SR) | inhibition at 10 µM (SF-295) | inhibition at 10 µM (KM12) | inhibition at 10 µM (PC-3) | inhibition at 10 µM (786-0) | inhibition at 10 µM (SK-MEL-2) | inhibition at 10 µM (HL-60(TB)) | inhibition at 10 µM (SNB-19) | inhibition at 10 µM (NCI-H322M) | inhibition at 10 µM (CAKI-1) | inhibition at 10 µM (MDA-MB-435) | also measured
1 | c1ccc(CNc2c3ccccc3nc3ccccc23)cc1 [Compound 1, Acridin-9-yl-benzyl-amine] | 37.4% | 61% | 67.16 ± 2.40% | 81% | 54.3% | 51.3% | 92.3% | 14.5% | 39% | 88.3% | 62.4% | 69.5% | 62.8% | 65.7% | 39.2% | 56.2% | 60.6% | 53.7% | 66.9% | 57.2% | IC50 (HCT-116): 2.81 ± 0.2 µM; inhibition at 10 µM (OVCAR-3): 48.3%; inhibition at 10 µM (NCI/ADR-RES): 62.4%; inhibition at 10 µM (HCT-15): 75.4%; inhibition at 10 µM (DU-145): 51.4%; inhibition at 10 µM (MDA-MB-468): 80.7%; inhibition at 10 µM (MCF7): 88%; inhibition at 10 µM (T-47D): 62.2%; inhibition at 10 µM (HS 578T): 43.9%; inhibition at 10 µM (LOX IMVI): 80.2%; inhibition at 10 µM (IGROV1): 70.2%; % Inhibition at 10 µM (CCD-966SK): 47.97 ± 1.96%
2 | Clc1ccccc1CNc1c2ccccc2nc2ccccc12 [Compound 11, Acridin-9-yl-(2-chlorobenzyl)-amine] | 53.4% | 89.3% | 63.49 ± 1.20% | 94.5% | 67.4% | 57.5% | 127% | 49.5% | 59% | 99.5% | 78.3% | 78% | 82.9% | 75.5% | 44.4% | 86.4% | 74.2% | 73% | 74.8% | 72.8% | IC50 (HCT-116): 7.13 ± 0.24 µM; inhibition at 10 µM (OVCAR-3): 46.4%; inhibition at 10 µM (NCI/ADR-RES): 76.2%; inhibition at 10 µM (HCT-15): 86.4%; inhibition at 10 µM (DU-145): 68.2%; inhibition at 10 µM (MDA-MB-468): 128%; inhibition at 10 µM (MCF7): 100%; inhibition at 10 µM (T-47D): 69.5%; inhibition at 10 µM (HS 578T): 50%; inhibition at 10 µM (LOX IMVI): 95.2%; inhibition at 10 µM (IGROV1): 82.2%; % Inhibition at 10 µM (CCD-966SK): 36.77 ± 3.49%
3 | Cc1ccccc1CNc1c2ccccc2nc2ccccc12 [Compound 2, Acridin-9-yl-(2-methylbenzyl)-amine] | 57.1% | 82.4% | 66.96 ± 0.14% | 91.1% | 63.3% | 61.4% | 109% | 41.7% | 53.3% | 97.3% | 70.5% | 83.1% | 74.4% | 75.7% | 59.9% | 84.7% | 72.9% | 71% | 74.9% | 76.1% | IC50 (HCT-116): 4.01 ± 0.17 µM; inhibition at 10 µM (OVCAR-3): 68.7%; inhibition at 10 µM (NCI/ADR-RES): 75.2%; inhibition at 10 µM (HCT-15): 85.4%; inhibition at 10 µM (DU-145): 69.4%; inhibition at 10 µM (MDA-MB-468): 94.2%; inhibition at 10 µM (MCF7): 93.1%; inhibition at 10 µM (T-47D): 75.5%; inhibition at 10 µM (HS 578T): 64.3%; inhibition at 10 µM (LOX IMVI): 90.9%; inhibition at 10 µM (IGROV1): 85.2%; % Inhibition at 10 µM (CCD-966SK): 59.74 ± 0.55%; IC50 (CCD-966SK; read-out: IC50 μM): 4.18 ± 0.36 µM
4 | Clc1ccc(CNc2c3ccccc3nc3ccccc23)cc1 [Compound 13, Acridin-9-yl-(4-chlorobenzyl)-amine] | 32.1% | 69.8% | 11.67 ± 4.59% | 85% | 49.5% | 50.3% | 92% | 19.7% | 29.3% | 97.7% | 40.4% | 64.4% | 61.3% | 64.7% | 27.6% | 55.3% | 56.9% | 45.9% | 58.6% | 39.3% | inhibition at 10 µM (OVCAR-3): 48.9%; inhibition at 10 µM (NCI/ADR-RES): 63.4%; inhibition at 10 µM (HCT-15): 76.7%; inhibition at 10 µM (DU-145): 45.2%; inhibition at 10 µM (MDA-MB-468): 70.4%; inhibition at 10 µM (MCF7): 84%; inhibition at 10 µM (T-47D): 56.6%; inhibition at 10 µM (HS 578T): 46.2%; inhibition at 10 µM (LOX IMVI): 77%; inhibition at 10 µM (IGROV1): 68.3%; % Inhibition at 10 µM (CCD-966SK): 2.73 ± 4.11%
